This passage reports GI50 and TGI results from PubChem BioAssay (NCI).

Common to all, as to test: NCI-60 cell line screen, 48 h
Assay [1] relates to LOX IMVI melanoma.
In assay [2] the test system is SNB-19 CNS.
For assay [3], the system named is DU-145 prostate.
The test system of assay [4] is MDA-MB-231 breast.
For assay [5], the system named is RPMI-8226 leukemia.
Assay [6] relates to SK-MEL-5 melanoma.
The subject of assay [7] is U251 CNS.
Assay [8] concerns SK-MEL-2 melanoma.
Assay [9] has as its system MDA-MB-435.
For assay [10], the system named is TK-10 renal.

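Interpolation was linear, between the two tested concentrations surrounding the appropriate level; five concentrations were tested over 48 hours in 96-well plates. GI50 = concentration required for 50% inhibition of growth. At the TGI there is no net growth.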

Take `COc1ccc2c(c1)C(=O)c1c-2c(NCCCN(C)C)nc2ccccc12`: the GI50 is 1.44 µM in [1]; 7.44 µM in assay [2]; 6.67 µM in assay [3]; 1.98 µM in [4]; 1.93 µM in [5]; 3.87 µM in assay [6]. Besides, the GI50 was 1.98 µM in assay [7], 18.4 µM in assay [8], 4.05 µM in assay [9] and 4.33 µM in assay [10]. Also, the TGI stood at 2.82 µM in [1]; 21.2 µM in [2]; 19.5 µM in [3]; 11.6 µM in assay [4]; 4.39 µM in assay [5]; 14.4 µM in assay [6]. Also, the TGI turned out to be 4.42 µM in assay [7], 34.3 µM in assay [8], 15.4 µM in [9] and 18.3 µM in [10].
Take `O=C1Nc2ccc(F)c3c(OCCO)cc(-c4ccc[nH]4)c1c23`: the GI50 in assay [1] was 1.19 µM; in [2], 3.66 µM; in [3], 1.97 µM; in [4] it was 2.03 µM; in assay [5] it was 1.82 µM; in [6], 2.45 µM. Moreover, the GI50 in [7] is 0.9 µM; in assay [8], 1.4 µM; in assay [9], 1.46 µM; in [10], 1.41 µM. Also, the TGI is 5.38 µM in assay [1]; 14.9 µM in [2]; 10.3 µM in [3]; 9.53 µM in assay [4]; 8.18 µM in [5]; 6.29 µM in assay [6]. Further, the TGI in assay [7] worked out at 6.3 µM; in assay [8] it was 6.51 µM; in assay [9], 14.1 µM; in [10], 6.42 µM.
As for `c1ccc2c(c1)O[As](O[As]1Oc3ccccc3O1)O2`, the GI50 is 2.3 µM in assay [1]; 5.56 µM in assay [2]; 3.96 µM in [3]; 2.11 µM in [4]; 1.07 µM in assay [5]; 1.55 µM in assay [6]. Also, the GI50 in assay [7] was 1.35 µM; in assay [8], 2.76 µM; in [9] it was 2.8 µM; in assay [10], 4.75 µM. Moreover, the TGI in [1] was 10.3 µM; in [2], 19.6 µM; in assay [3] it was 15.2 µM; in assay [4], 10.7 µM; in assay [5], 4.61 µM; in assay [6], 3.69 µM. In addition, the TGI in assay [7] turned out to be 4.43 µM; in assay [8] it was 8.61 µM; in assay [9] it was 13.9 µM; in [10], 13.3 µM.
With `COc1ccc(-c2nc(-c3nc4ccc(F)cc4[nH]3)cc3c2[nH]c2ccccc23)cc1`, the GI50 in [1] is 2.22 µM; in assay [2] it was 2.94 µM; in assay [3], 2.99 µM; in assay [4] it was 2.3 µM; in assay [5], 1.16 µM; in assay [6] it was 1.8 µM. For the same compound, the GI50 in assay [7] is 2.42 µM; in assay [8], 2.11 µM; in [9], 2.58 µM; in [10] it was 2.2 µM. Moreover, the TGI in [1] was 5.31 µM; in [2] it was more than 100 µM; in assay [3], 9.65 µM; in [4] it was 8.95 µM; in [5], 3.92 µM; in [6], 4.61 µM. The TGI in assay [7] amounted to 7.26 µM; in assay [8], 4.45 µM; in [9], 13.4 µM; in assay [10], 6.74 µM.
As for `CN(C(=O)C1CCCCC1)c1ccccc1I(=O)=O`, the GI50 in assay [1] is 40.2 µM; in assay [2], 40.3 µM; in assay [3], 55.9 µM; in assay [4], 70 µM; in assay [5] it was 12.9 µM; in assay [6], 20.3 µM. Also, the GI50 in [7] was 31.3 µM; in assay [8], more than 100 µM; in [9], 41.4 µM; in assay [10], 27.4 µM. Besides, the TGI in assay [1] was more than 100 µM; in assay [2] it was more than 100 µM; in assay [3] it was more than 100 µM; in assay [4], more than 100 µM; in assay [5] it was 33.7 µM; in assay [6], 73.8 µM. Besides, the TGI in assay [7], in assay [8], in [9] and in [10] was more than 100 µM each time.
Take `CC1=CC[C@@H]2[C@@H](CC[C@@]2(C)O)C(C)(C)[C@H]1CC[C@@H]1[C@@]2(C)CCC(=O)C(C)(C)O[C@@H]2CC[C@]1(C)O`: the TGI is 33.3 µM in assay [1]; more than 100 µM in [2]; more than 100 µM in [3]; more than 100 µM in assay [4]; 51.1 µM in assay [5]; 39.1 µM in [6]. Also, the TGI in [7], in [8], in assay [9] and in assay [10] was more than 100 µM in each case.
As for `Brc1c[n+](Cc2ccc3ccccc3c2)cn1Cc1ccc2ccccc2c1`, the GI50 is 1.42 µM in assay [1]; 1.41 µM in assay [2]; 2.54 µM in [3]; 1.4 µM in [4]; 1.02 µM in assay [5]; 1.6 µM in assay [6]. The GI50 is 1.67 µM in [7], 1.81 µM in assay [8], 1.69 µM in assay [9] and 1.86 µM in [10]. Also, the TGI in assay [1] was determined as 2.74 µM; in [2], 2.75 µM; in assay [3] it was 7.75 µM; in [4], 2.86 µM; in assay [5] it was 3.06 µM; in assay [6], 2.96 µM. The TGI is 3.51 µM in assay [7], 3.9 µM in assay [8], 3.22 µM in [9] and 5.16 µM in assay [10].
